Patent US10209240B2, “Predicting human developmental toxicity of pharmaceuticals using human stem-like cells and metabolomic ratios” (STEMINA BIOMARKER DISCOVERY, INC., priority 2012, dated 2019)

Legend:
Humans = details: cited from earlier work; for Humans (known human developmental toxicity): training and test set; for Known Effect: validation and test set treatments of Example 2
WA09 hES cells [1] = experiment: Phase 2 targeted biomarker assay, ornithine/cystine ratio, 9-point dose response; details: for Teratogenicity Potential (μM) O/C Ratio: human, 72 h
How it was run: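 WA09 hES cells (≤ passage 40), plated as single cells at 100,000/well on Matrigel in mTeSR1 with 10 μM Y27632, dosed 24 h later with nine 3-fold dilutions, 0.04–300 μM, 0.1% DMSO, for 72 h. Final-24 h spent medium, spiked with 13C6-arginine and filtered (<10 kDa), analysed by LC-HRMS; viability by CellTiter-Fluor.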

hES cells = experiment: devTOX computational model predictions (Version 2.0, Version 2.1) from hES cell metabolomics; assay type: cell-based, human; details: single dose per treatment (Dose column)
From the text: The selection process weighted the predictive capacity of a feature, overall intensity, and peak shape to identify very well behaved features/metabolites that could be measured by targeted LC-MS or even by other detection systems.
This simplified model is based on a ratio of the reference treatment (DMSO) normalized values of ADMA and cystine.

rat whole embryo = details: training and test set; weak/moderate and strong teratogens both labeled teratogen; cited from earlier work
[2] = system: mouse embryonic stem cell; details: training and test set; weak/moderate and strong teratogens both labeled teratogen; cited from earlier work
Rabbit = details: training and test set; cited from earlier work
WA09 hES cells [3] = experiment: Phase 1 untargeted metabolomics of hES cell spent media, single concentration (ornithine, cystine, o/c ratio); assay type: cell-based, human; details: for Cystine abundance relative to the reference treatment / Ornithine abundance relative to the reference treatment: Phase 1, spent media, 72 hours, reference 0.1% DMSO; for Cystine abundance relative to the reference treatment: Cmax exposure (IC30 for hydroxyurea); for Ornithine abundance relative to the reference treatment: Cmax or IC30 exposure
Method: Undifferentiated hES Cell Line Maintenance (Phases 1 and 2).
96-well hES Cell Plating (Phases 1 and 2). […] Compound exposure began 24 hours after plating.
Sample Preparation (Phases 1 and 2).
Phase 1 Mass Spectrometry. LC-HRMS data was acquired for nine biological replications on three separate LC-HRMS systems with three replications evaluated on each system. Each system consisted of an Agilent 1290 Infinity LC system interfaced either with an Agilent G6520A QTOF high resolution mass spectrometer (QTOF HRMS), an Agilent G6530A QTOF HRMS, or an Agilent G6224A TOF HRMS system (Agilent Technologies, Santa Clara, Calif.). To facilitate separation of biological small molecules with a wide range of structures and to allow increased retention of hydrophilic species, Hydrophilic Interaction Liquid Chromatography (HILIC) was utilized. A Luna HILIC column (Phenomenex, Torrance, Calif.) with dimensions 3×100 mm and 3 μm particle size was used and maintained at 30° C. […] Electrospray ionization was employed using a dual ESI source. The scan range of the instrument was 70-1600 Da. Data acquisition was performed with MassHunter Acquisition software (version B 04.00, Agilent Technologies) using high-resolution exact mass conditions and each set of samples was run first under ESI positive polarity then under ESI negative polarity conditions.
Peak Detection (Phases 1 and 2). […] Mass features (peaks) were detected using the centwave algorithm.
Ornithine/Cystine Ratio Calculation.
Teratogenicity Threshold Selection (Phases 1 and 2).
Phase 1 Prediction of Developmental Toxicity Potential. A test compound was classified as a developmental toxicant if the mean of the change in the abundance in the treated sample compared to the reference treatment (DMSO) across the nine experimental replications for either metabolite or the o/c ratio exceeded its respective teratogenicity threshold at the concentration tested. The predictive accuracy (correct prediction), sensitivity (true positive rate), and specificity (true negative rate) were based on scoring the predicted result (teratogen or non-teratogen) against the known human teratogenicity of the compound.

Row | SMILES | Humans (known human developmental toxicity) (Humans) | Known Effect (Humans) | O/C Ratio Prediction (WA09 hES cells [1]) | Targeted Biomarker Assay prediction (WA09 hES cells [1]) | Teratogenicity Potential (μM) O/C Ratio (WA09 hES cells [1]) [µM] | Model Predictions Version 2.0 (hES cells) | Model Predictions Version 2.1 (hES cells) | WEC prediction (rat whole embryo) | mEST prediction [2] | Rabbit prediction (Rabbit) | Cystine abundance relative to the reference treatment (WA09 hES cells [3]) | Ornithine abundance relative to the reference treatment (WA09 hES cells [3]) | Change in the o/c ratio, also relative to cytotoxicity (WA09 hES cells [1]) | Classification by o/c ratio in the targeted biomarker assay (WA09 hES cells [1]) | Classification by o/c ratio in Phase 1 (WA09 hES cells [3]; teratogenicity threshold of a 12% decrease in the o/c ratio, single concentration)
1 | CC1=C(/C=C/C(C)=C/C=C/C(C)=C\C(=O)O)C(C)(C)CCC1 [13-cis Retinoic Acid] | TER | Ter | TER | TER | 0.0007 | Ter | Ter | TER^s | TER^p | TER | significant increase in abundance | increased | – | – | –
2 | CC1=C(/C=C/C(C)=C/C=C/C(C)=C/C(=O)O)C(C)(C)CCC1 [All-trans Retinoic Acid] | TER | Ter | TER | TER | 0.00004 | Ter | Ter | TER^q,s | TER^b,p | TER | significant increase in abundance | increased | change in the o/c ratio indicative of developmental toxicity in the absence of cytotoxicity | – | –
3 | NC(=O)N1c2ccccc2C=Cc2ccccc21 [Carbamazepine] | TER | Ter | TER | TER | 0.9 | Ter | Ter | TER^j | TER^i | – | significant increase in abundance | – | – | – | –
4 | O=C1NC(=O)C(c2ccccc2)(c2ccccc2)N1 [Diphenylhydantoin] | TER | Ter | NON | NON | 263.3 | Non | Non | TER^f,j | TER^b,i | TER | – | – | – | misclassified | misclassifying
5 | O=C1CCC(N2C(=O)c3ccccc3C2=O)C(=O)N1 (stereo not shown) [Thalidomide] | TER | Ter | TER | TER | 0.2 | Ter | Ter | TER^f | – | TER | significant increase in abundance | – | change in the o/c ratio indicative of developmental toxicity in the absence of cytotoxicity | – | –
